From US20230257376A1, “ROCK INHIBITOR, AND PREPARATION METHOD THEREFOR AND USE THEREOF” (WUHAN LL SCIENCE AND TECHNOLOGY DEVELOPMENT CO., LTD., priority 2020, published 2023)

Key:
[1] = target: T1, ROCK2 kinase (Homo sapiens, UniProt O75116); experiment: In vitro evaluation of ROCK2 kinase activity (HTRF KinEASE-STK time-resolved fluorometric assay); type: biochemical; conditions: ROCK2 kinase 0.4 ng/μL, ATP 6.739 μM
T1 construct: purchased Invitrogen PV3759
Procedure, shortened: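 Recombinant kinase (0.4 ng/μL final) preincubated 0.5 h at RT with compound (1% DMSO), then 2 h with 6.739 μM ATP and 1 μM biotinylated STK substrate 2 (final). HTRF readout via STK antibody-cryptate/streptavidin-XL665 after ~1 h; buffer 5 mM MgCl2, 1 mM DTT.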

[2] = In vitro metabolic stability, rat liver microsome incubation; type: in vitro ADME; conditions: liver microsomes, 1 mg/mL protein, 37° C., read-out: T1/2 in rat liver microsome
Description: (§1) The in vitro metabolic stability of the compounds disclosed herein was determined through incubation of liver microsomes of various species. A proper amount of test compound was added into a liver microsome reaction system (1 mg/mL liver microsome protein, 25 U/mL glucose-6 phosphate dehydrogenase, 1 mM NADP, 6 mM D-glucose 6-phosphate and 5 mM MgCl2), and then the mixture was incubated in a water bath kettle at 37° C. to start reaction. At each time point, 100 μL of the reaction liquid was added into a centrifuge tube containing 400 μL of internal standard working solution (containing a 200 ng/mL solution of dexamethasone, diclofenac, tolbutamide and labetalol in acetonitrile) precooled at 0° C. so as to stop the reaction, and the mixture was then centrifuged at 10,000 g for 10 min at 4° C. The supernatant was collected for LC-MS assay so as to obtain the values of in vitro metabolic half-life of the test compounds in liver microsomes of various species.

[3] = In vitro metabolic stability, guinea pig liver microsome incubation; type: in vitro ADME; conditions: liver microsomes, 1 mg/mL protein, 37° C., read-out: T1/2 in guinea pig liver microsome
Description: as §1

[4] = In vivo pharmacokinetic study in mice; conditions: mouse, plasma; for bioavailability: 1 mg/kg Po (fasted) vs 1 mg/kg Iv; for AUC(0-t) / Cmax: 1 mg/kg
Description: […] After administration, plasma of mice was collected at specific time points, and the concentration of the compound in the plasma was detected by LC-MS/MS (AB SCIEX Qtrap4500). The PK parameters of the compounds were statistically analyzed and calculated (WinNonlin V5.2, Pharsight) to show the pharmacokinetic properties of the compounds disclosed herein in mice.

[5] = In vitro metabolic stability, human liver microsome incubation; type: in vitro ADME; conditions: liver microsomes, 1 mg/mL protein, 37° C., read-out: T1/2 in human liver microsome
Description: as §1

[6] = In vitro cytotoxicity assay in HepG2 cells using the CCK-8 method; type: cell-based; conditions: human
Description: In vitro cytotoxicity assay for the compounds disclosed herein was performed in HepG2 cells using the CCK-8 method. HepG2 cells (Beina Bio) in the logarithmic growth phase were collected, the concentration of cell suspension was adjusted, and then the cells were plated on a 96-well cell culture plate at 50,000 cells/well. The cells were then incubated overnight in a cell incubator (5%, 37° C.), and after 80-90% cell confluence was achieved, test compound at each concentration gradient or vehicle (DMSO) was added after medium change. The resulting mixture was incubated in the cell incubator (5%, 37° C.) for 48 h. After the treatment, the medium in the plate was discarded. The plate was washed twice with PBS, added with CCK-8 working solution (Beyotime) at 100 μL per well, and then incubated at 37° C. for 1.5 h in the dark. Absorbance at OD450 nm mil was measured for each well on a microplate reader, and CC50 value of each compound was analyzed and calculated.

[7] = target: T2, ROCK1 kinase (Homo sapiens, UniProt Q13464); experiment: In vitro evaluation of ROCK1 kinase selectivity (HTRF KinEASE-STK time-resolved fluorometric assay); type: biochemical; conditions: ROCK1 kinase 0.4 ng/μL, ATP 3.53 μM
T2 construct: purchased Invitrogen
T2 sequence (Q13464 whole entry): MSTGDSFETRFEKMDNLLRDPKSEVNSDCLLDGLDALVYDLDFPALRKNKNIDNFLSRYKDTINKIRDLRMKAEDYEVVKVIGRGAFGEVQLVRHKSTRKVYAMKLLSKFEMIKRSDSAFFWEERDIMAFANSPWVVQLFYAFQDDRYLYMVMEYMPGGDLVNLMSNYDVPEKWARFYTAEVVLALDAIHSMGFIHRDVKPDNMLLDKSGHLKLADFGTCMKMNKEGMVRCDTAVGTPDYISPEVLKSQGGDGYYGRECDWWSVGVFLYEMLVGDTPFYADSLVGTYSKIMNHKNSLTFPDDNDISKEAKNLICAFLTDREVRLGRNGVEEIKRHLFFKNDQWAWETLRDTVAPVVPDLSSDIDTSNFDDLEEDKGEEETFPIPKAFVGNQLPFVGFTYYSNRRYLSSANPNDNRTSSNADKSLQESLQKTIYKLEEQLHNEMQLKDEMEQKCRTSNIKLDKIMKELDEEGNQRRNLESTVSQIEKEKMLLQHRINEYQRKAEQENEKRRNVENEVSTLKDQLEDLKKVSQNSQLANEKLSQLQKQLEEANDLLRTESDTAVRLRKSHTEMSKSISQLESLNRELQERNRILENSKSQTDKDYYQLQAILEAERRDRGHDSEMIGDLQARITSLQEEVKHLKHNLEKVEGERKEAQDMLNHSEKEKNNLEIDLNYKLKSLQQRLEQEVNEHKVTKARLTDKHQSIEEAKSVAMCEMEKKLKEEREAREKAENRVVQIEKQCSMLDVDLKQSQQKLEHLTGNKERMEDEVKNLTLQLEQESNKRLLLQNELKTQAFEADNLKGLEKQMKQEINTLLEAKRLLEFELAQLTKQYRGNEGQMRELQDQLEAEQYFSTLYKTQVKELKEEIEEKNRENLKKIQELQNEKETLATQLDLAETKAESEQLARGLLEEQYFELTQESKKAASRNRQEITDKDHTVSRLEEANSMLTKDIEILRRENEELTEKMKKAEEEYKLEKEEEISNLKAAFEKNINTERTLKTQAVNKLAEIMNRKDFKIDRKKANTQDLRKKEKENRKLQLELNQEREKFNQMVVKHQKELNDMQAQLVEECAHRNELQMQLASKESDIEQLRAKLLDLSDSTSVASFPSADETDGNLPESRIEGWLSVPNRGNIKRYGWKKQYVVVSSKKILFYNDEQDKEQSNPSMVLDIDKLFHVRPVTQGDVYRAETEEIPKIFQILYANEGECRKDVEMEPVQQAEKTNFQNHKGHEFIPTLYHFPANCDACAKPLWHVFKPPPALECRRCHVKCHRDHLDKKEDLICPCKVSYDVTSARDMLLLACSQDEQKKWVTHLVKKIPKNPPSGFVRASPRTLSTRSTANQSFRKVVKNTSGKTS
Procedure, shortened: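 HTRF KinEASE-STK assay with ROCK1 at 0.4 ng/μL final, preincubated with compound (1% DMSO) 0.5 h at room temperature. Reaction ran 2 h at room temperature with 3.53 μM ATP and 1 μM biotinylated STK-substrate 2, then detection via STK antibody-cryptate/streptavidin-XL665 after ~1 h.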

T1 sequence (O75116 whole entry): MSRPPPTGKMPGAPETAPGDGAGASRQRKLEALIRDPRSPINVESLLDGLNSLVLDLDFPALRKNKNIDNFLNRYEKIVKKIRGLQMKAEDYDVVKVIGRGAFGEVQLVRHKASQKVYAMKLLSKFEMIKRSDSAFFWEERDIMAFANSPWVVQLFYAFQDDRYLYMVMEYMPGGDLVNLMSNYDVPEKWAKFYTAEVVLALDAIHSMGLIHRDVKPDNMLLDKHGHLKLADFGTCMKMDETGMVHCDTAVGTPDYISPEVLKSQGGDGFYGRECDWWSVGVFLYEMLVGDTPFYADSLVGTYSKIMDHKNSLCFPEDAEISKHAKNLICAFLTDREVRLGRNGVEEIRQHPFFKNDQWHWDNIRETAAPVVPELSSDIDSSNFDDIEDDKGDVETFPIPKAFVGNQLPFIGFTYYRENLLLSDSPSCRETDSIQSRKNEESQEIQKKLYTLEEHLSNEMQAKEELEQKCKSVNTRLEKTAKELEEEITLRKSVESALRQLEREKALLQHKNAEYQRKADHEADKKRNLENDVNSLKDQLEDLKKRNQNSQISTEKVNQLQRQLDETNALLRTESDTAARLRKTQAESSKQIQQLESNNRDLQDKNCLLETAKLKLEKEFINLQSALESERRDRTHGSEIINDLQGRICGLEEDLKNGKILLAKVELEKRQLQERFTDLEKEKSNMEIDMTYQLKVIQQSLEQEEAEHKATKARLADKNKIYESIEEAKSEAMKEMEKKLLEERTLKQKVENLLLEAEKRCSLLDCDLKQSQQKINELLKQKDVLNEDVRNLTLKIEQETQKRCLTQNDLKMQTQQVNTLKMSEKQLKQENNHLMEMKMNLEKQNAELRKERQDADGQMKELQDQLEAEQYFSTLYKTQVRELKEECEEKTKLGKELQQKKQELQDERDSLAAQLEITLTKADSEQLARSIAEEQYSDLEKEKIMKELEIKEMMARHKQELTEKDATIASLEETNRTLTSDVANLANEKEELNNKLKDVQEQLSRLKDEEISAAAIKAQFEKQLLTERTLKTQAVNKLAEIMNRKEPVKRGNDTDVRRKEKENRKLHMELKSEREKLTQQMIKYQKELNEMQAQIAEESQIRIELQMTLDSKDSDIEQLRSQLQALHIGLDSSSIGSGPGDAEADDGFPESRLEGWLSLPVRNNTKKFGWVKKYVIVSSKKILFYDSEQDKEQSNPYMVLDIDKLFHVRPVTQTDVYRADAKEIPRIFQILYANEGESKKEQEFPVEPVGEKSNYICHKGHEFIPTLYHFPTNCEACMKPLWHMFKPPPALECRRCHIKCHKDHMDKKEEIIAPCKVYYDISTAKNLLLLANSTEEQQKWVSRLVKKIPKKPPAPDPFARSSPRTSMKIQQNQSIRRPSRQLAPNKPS

SMILES	IC50 [1] [µM]	half-life [2] [h]	half-life [3] [h]	bioavailability [4] [%]	AUC(0-t) ([4]; Iv) [ng·h/mL]	Cmax ([4]; Iv) [ng/mL]	AUC(0-t) ([4]; Po (fasted)) [ng·h/mL]	Cmax ([4]; Po (fasted)) [ng/mL]	half-life [5] [h]	CC50 at 48 h [6] [µM]	IC50 [7] [µM]
Cn1c(C(=O)N2CC(F)(F)C2)cc2c1CN(c1nc(F)cc(Nc3ccc(-c4cn[nH]c4)cc3)n1)CC2 [Compound L030, (6-(4-((4-(1H-pyrazol-4-yl)phenyl)amino)-6-fluoropyrimidin-2-yl)-1-methyl-4,5,6,7-tetrahydro-1H-pyrrolo[2,3-c]pyridin-2-yl)(3,3-difluoroazetidin-1-yl)methanone]	0.05 to 0.5	2.64	0.969	30.6	726	1120	225	60	3.46	> 100	> 4.5
Cn1c(C(=O)N2CC(F)(F)C2)cc2c1CN(c1ncnc(Nc3ccc(-c4cn[nH]c4)cc3)n1)CC2 [Compound L036, (6-(4-((4-(1H-pyrazol-4-yl)phenyl)amino)-1,3,5-triazin-2-yl)-1-methyl-4,5,6,7-tetrahydro-1H-pyrrolo(2,3-c)pyridin-2-yl)(3,3-difluoroazetidin-1-yl)methanone]	0.05 to 0.5	1.57	1.25	59.9	349	473	209	98.7	2.97	> 100	> 4.5
Cn1c(C(=O)N2CC(C(F)F)C2)cc2c1CN(c1nccc(Nc3ccc(-c4cn[nH]c4)cc3)n1)CC2 [Compound L060, (6-(4-((4-(1H-pyrazol-4-yl)phenyl)amino)pyrimidin-2-yl)-1-methyl-4,5,6,7-tetrahydro-1H-pyrrolo[2,3-c]pyridin-2-yl)(3-(difluoromethyl)azetidin-1-yl)methanone]	≤ 0.05	1.16	0.969	54	266	463	144	64.5	1.59	> 100	> 4.5
